These are literature values, as cited in PubChem BioAssay AID493017.

In series [1] the target is Estrogen receptor (Homo sapiens) (UniProt P03372). Nature of the series: PubChem AID 493017. Particulars: WOMBAT literature affinities, multiple human targets, ERalpha, gene ESR1, NCBI gene 2099; for Kd: binding affinity Kd; for Ki: binding affinity Ki.
Series [2] deals with WOMBAT literature affinities, multiple human targets. Description: PubChem AID 493017.
[3] abbreviates: HIV-1 RT, gene HIV-1 reverse transcriptase.

Sequence of Estrogen receptor (Homo sapiens) (P03372 whole entry, looked up): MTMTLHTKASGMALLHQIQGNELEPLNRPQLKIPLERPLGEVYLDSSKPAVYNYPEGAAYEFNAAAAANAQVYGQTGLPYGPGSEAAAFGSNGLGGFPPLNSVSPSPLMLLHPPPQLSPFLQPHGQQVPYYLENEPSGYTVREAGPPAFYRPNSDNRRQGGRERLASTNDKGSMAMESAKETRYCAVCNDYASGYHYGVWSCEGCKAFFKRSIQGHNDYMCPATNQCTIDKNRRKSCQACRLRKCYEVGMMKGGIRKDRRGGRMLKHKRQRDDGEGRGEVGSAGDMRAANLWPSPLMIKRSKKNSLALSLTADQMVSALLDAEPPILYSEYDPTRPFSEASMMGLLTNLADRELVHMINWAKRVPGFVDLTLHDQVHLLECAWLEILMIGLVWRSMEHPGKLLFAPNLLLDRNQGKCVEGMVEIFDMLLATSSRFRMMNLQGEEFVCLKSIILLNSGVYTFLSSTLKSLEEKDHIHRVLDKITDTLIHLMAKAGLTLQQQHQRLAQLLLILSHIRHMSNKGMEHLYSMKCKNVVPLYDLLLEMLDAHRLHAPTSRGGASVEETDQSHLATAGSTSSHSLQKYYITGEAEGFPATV

Broadly, the Kd is the equilibrium constant for the complex coming apart. As for `CON=Cc1ccc(-c2ccccc2)c(-c2ccccc2)c1O`, the Kd in series [1] was 2500 nM.
The term IC50 denotes the midpoint of a concentration-inhibition curve. With `CC(C)c1c(Sc2ccccc2)n(COCc2ccccc2)c(=S)[nH]c1=O`, the IC50 in series [2] (setting [3]) was 6.8 nM.
Regarding `CCC(=C(c1ccc(O)cc1)c1ccc(OCCN(C)CCON=Cc2ccc(O)c(C(N)=O)c2)cc1)c1ccccc1`, in series [1], the concentration for half-maximal inhibition (IC50) is 300 nM.
For the molecule `C[C@]12CCC3c4ccc(O)cc4CCC3C1C(O)CC2O` (some centres undefined), in series [1], the Kd is 12 nM.
One may read the Ki as the dissociation constant of the complex between target and ligand, obtained from inhibition or displacement. With `Oc1ccc(C2=C(c3ccccc3)c3ccc(O)cc3C2)cc1`, in series [1], the Ki was 63.3 nM.
As for `CSCCC(NC(=O)C(CCO)N(Cc1ccccc1)C(=O)C(CC(C)C)NC(=O)OCc1ccccc1)C(=O)NC(C)(C)C` (centres undefined), the IC50 in series [2] (HIV-1 P, gene HIV-1 protease) was 365 nM.
As to `Cc1cc(O)cc(C)c1CNC(=O)C(Cc1ccccc1)CC(O)CN1CCN(C(=O)c2cccnc2)CC1C(=O)NC(C)(C)C` (centres undefined), the IC50 in series [2] (HIV-1 P, gene HIV-1 protease) was 8.2 nM.
Regarding `CCCc1nc(-c2ccc(O)cc2)c(CCC)nc1-c1ccc(O)cc1`, the half-inhibitory concentration (IC50) in series [1] is 0.11 nM.
Consider `CCOCn1c(Sc2cc(C)cc(C)c2)c(CC)c(=O)[nH]c1=S`, for which, in series [2] (setting [3]), the IC50 was 4.4 nM.
Regarding `CCCCCCCCOC(=O)c1cc2c([nH]c3ccccc32)c(-c2ccc3c(n2)C(=O)C(NC(C)=O)=CC3=O)n1`, the 50% inhibitory concentration (IC50) in series [2] (setting [3]) is 3000 nM.
As to `O=C1OC2(CCCc3ccccc32)CC(O)=C1SCc1ccccc1` (centres undefined), in series [2] (HIV-1 P, gene HIV-1 protease), the half-maximal inhibitory concentration (IC50) is 2300 nM.
As to `Cc1cccc(NC(=S)NC(C)c2ccccc2)n1` (centres undefined), the half-maximal inhibitory concentration (IC50) in series [2] (setting [3]) was 1700 nM.
As for `CC(C)c1cc(C(C)C)n2nc(-c3ccc(O)cc3)c(-c3cccc(O)c3)c2n1`, the Ki in series [1] was 2000 nM.
For the molecule `CC(C)(C)OC(=O)NC(Cc1ccccc1)C(O)C[C@]1(Cc2ccccc2)NC=C(C2c3ccccc3C3NC(=O)OC32)C1=O` (some centres undefined), in series [2] (HIV-1 P, gene HIV-1 protease), the 50% inhibitory concentration (IC50) is 2.5 nM.
For `O=C1Nc2ccc(Cl)cc2[C@@](C#CC2CC2)(C(F)(F)F)N1`, the half-inhibitory concentration (IC50) in series [2] (setting [3]) is 31 nM.
In the case of `CCNC1=C(c2ccc(O)cc2)C(=O)c2cc(O)cc(O)c21`, the concentration for half-maximal inhibition (IC50) in series [1] is 2700 nM.
Regarding `CC(C)C#C[C@@]1(C(F)(F)F)NC(=O)Nc2ccc(F)c(F)c21`, the IC50 in series [2] (setting [3]) is 1520 nM.
`CC(C)(C)OC(=O)NC(Cc1ccccc1)C(O)CC(Cc1ccccc1)C(=O)NCC1CCCCC1` (centres undefined): the concentration for half-maximal inhibition (IC50) in series [2] (HIV-1 P, gene HIV-1 protease) is 30000 nM.
With `CC(C)(C)OC(=O)NC(Cc1ccccc1)C(O)CNCC(O)C(Cc1ccccc1)NC(=O)OC(C)(C)C` (centres undefined), in series [2] (HIV-1 P, gene HIV-1 protease), the concentration for half-maximal inhibition (IC50) was 125 nM.
Turning to `CCC(=C(c1ccccc1)c1ccnn1OCc1ccccc1)c1ccccc1`, the IC50 in series [1] was 10000 nM.
For `Oc1ccc(-c2c(-c3cccc(O)c3)nn3c(C(F)(F)F)cc(C(F)(F)F)nc23)cc1`, the inhibition constant Ki in series [1] is 2000 nM.
Take `CC(C)(C)OC(=O)NC(Cc1ccccc1)C(O)C(O)C(Cc1ccccc1)NC(=O)OC(C)(C)C` (centres undefined): the IC50 in series [2] (HIV-1 P, gene HIV-1 protease) was 12 nM.
Regarding `Oc1ccc2c(c1)CCC21C=C(c2ccc(OCCN3CCCC3)cc2)c2cc(O)ccc21` (centres undefined), the Ki in series [1] is 21.4 nM.
For `COC(=O)CCCC=C(c1cc(C)c(OC)c(C(=O)OC)c1)c1cc(C)c(OC)c(C(=O)OC)c1`, the IC50 in series [2] (setting [3]) was 1000 nM.
As to `CCc1c(-c2ccc(O)cc2)nn(-c2ccc(O)cc2)c1-c1ccc(O)cc1`, the Kd in series [1] was 0.83 nM.
On to `CCC(=C(c1ccccc1)c1ccnn1O)c1ccccc1`, for which the IC50 in series [1] is 10000 nM.
As for `CCC(=C(c1ccccc1)c1ccccc1)c1cnn(OCCCN(C)C)c1`, the half-inhibitory concentration (IC50) in series [1] was 10000 nM.
As for `COc1ccc2c(C(=O)c3ccc(OCCN4CCCCC4)cc3)c(-c3ccc(O)cc3)sc2c1`, in series [1], the IC50 is 2000 nM.
`Cc1ccc2c(c1)[C@@](C#CC1CC1)(C(F)(F)F)OC(=O)N2`: the 50% inhibitory concentration (IC50) in series [2] (setting [3]) is 0.133 nM.
Take `Cc1c(O)cccc1C(=O)NC(CC(C)C)C(=O)N(Cc1ccccc1)N(CCO)C(=O)C1CCCN1C(=O)OC(C)(C)C` (centres undefined): the 50% inhibitory concentration (IC50) in series [2] (HIV-1 P, gene HIV-1 protease) was 5000 nM.
Turning to `CCc1c(Cc2ccccc2)nc(-c2ccc(O)cc2)nc1-c1ccc(O)cc1`, in series [1], the IC50 is 2.08 nM.
With `C=C[C@]12CCC(O)CC1=CCC1C3CCC(O)[C@@]3(C)CCC12` (some centres undefined), in series [1], the IC50 was 2240 nM.
In the case of `CC1C(=O)Nc2ccc(Cl)cc2S(=O)(=O)N1Cc1cc(Cl)cc(Cl)c1` (centres undefined), in series [2] (setting [3]), the concentration for half-maximal inhibition (IC50) is 2130 nM.
For the molecule `Cc1cc(SC2=C(O)CC(CCc3ccc(O)cc3)(c3ccc(O)cc3)OC2=O)c(C(C)(C)C)cc1CO` (centres undefined), the half-inhibitory concentration (IC50) in series [2] (HIV-1 P, gene HIV-1 protease) is 120 nM.
With `CCc1nc(-c2ccc(O)cc2)nc(-c2ccc(O)cc2)c1-c1ccc(O)cc1`, in series [1], the concentration for half-maximal inhibition (IC50) is 0.63 nM.
For `CCc1c(-c2ccc(O)cc2)oc(-c2ccc(O)cc2)c1-c1ccc(O)cc1`, the Kd in series [1] is 0.214 nM.
Consider `CCC(=C(c1ccccc1)c1ccnn1OCCCN(C)C)c1ccccc1`, for which the IC50 in series [1] was 1400 nM.
Regarding `O=C1OC(c2ccccc2)CC(O)=C1SCCc1ccccc1` (centres undefined), the IC50 in series [2] (HIV-1 P, gene HIV-1 protease) is 2100 nM.
As to `CCOCn1c(Sc2ccccc2)c(CC)c(=O)[nH]c1=O`, the IC50 in series [2] (setting [3]) is 19 nM.
Take `Cc1cc(SC2=C(O)CC(CCc3ccc(O)cc3)(C(C)C)OC2=O)c(C(C)(C)C)cc1OS(C)(=O)=O` (centres undefined): the IC50 in series [2] (HIV-1 P, gene HIV-1 protease) was 2.2 nM.
Consider `C[C@]12CCC3c4ccc(O)cc4CCC3C1CC[C@@]2(O)CCNC(=O)CBr` (some centres undefined), for which, in series [1], the IC50 is 1600 nM.
Consider `CCc1c(Cc2ccccc2)n(CCOC)c(=O)[nH]c1=O`, for which, in series [2] (setting [3]), the IC50 is 250 nM.
As to `CCN1c2ncc(CSc3ccncc3)cc2C(=O)N(C)c2c(C)cc(Cl)nc21`, the 50% inhibitory concentration (IC50) in series [2] (setting [3]) was 3 nM.
With `CCCC1C(c2ccc(O)cc2)=C(CC)c2ccc(O)cc21` (centres undefined), the Kd in series [1] was 1.67 nM.
